Our source for the growth values is ChEMBL document CHEMBL3734723, “Synthesis and anticancer activity of 6-heteroarylcoumarins” (2015).

Structures are written as SMILES.

Common to all, as to assay type: functional
Test [1] is described as follows: Cytotoxicity against human HL-60(TB) cells assessed as cell growth at 10 uM incubated for 48 hrs by sulforhodamine B assay. The conditions noted are these: HL-60, 48 h, read-out: Activity. In general terms: Sulforhodamine B stains cellular protein and so reports cell mass.
Test [2] in a line: Cytotoxicity against human RPMI8226 cells assessed as cell growth at 10 uM incubated for 48 hrs by sulforhodamine B assay. As to conditions: RPMI-8226, 48 h, read-out: Activity.
For a further test, the system named is CCRF-CEM. Put plainly: Cytotoxicity against human CCRF-CEM cells assessed as cell growth at 10 uM incubated for 48 hrs by sulforhodamine B assay. As to conditions: read-out: Activity.
The subject of a further test is SR. As to the kind of experiment: Cytotoxicity against human SR cells assessed as cell growth at 10 uM incubated for 48 hrs by sulforhodamine B assay. As to conditions: read-out: Activity.
The nature of test [3]: Cytotoxicity against human HOP92 cells assessed as cell growth at 10 uM incubated for 48 hrs by sulforhodamine B assay. As to conditions: HOP-92, 48 h, read-out: Activity.
Test [4] can be described thus: Cytotoxicity against human […] cells assessed as cell growth at 10 uM incubated for 48 hrs by sulforhodamine B assay. The conditions noted are these: read-out: Activity.
The nature of test [5]: Cytotoxicity against human OVCAR8 cells assessed as cell growth at 10 uM incubated for 48 hrs by sulforhodamine B assay. The conditions noted are these: OVCAR-8, 48 h, read-out: Activity.
Another test relates to NCI-H522. Put plainly: Cytotoxicity against human NCI-H522 cells assessed as cell growth at 10 uM incubated for 48 hrs by sulforhodamine B assay. The conditions noted are these: NCI-H522, 48 h, read-out: Activity.
Test [6] is described as follows: Cytotoxicity against human UO31 cells assessed as cell growth at 10 uM incubated for 48 hrs by sulforhodamine B assay. The conditions noted are these: UO-31, 48 h, read-out: Activity.
The subject of a further test is MDA-MB-468. As to the kind of experiment: Cytotoxicity against human MDA-MB-468 cells assessed as cell growth at 10 uM incubated for 48 hrs by sulforhodamine B assay. The conditions noted are these: MDA-MB-468, 48 h, read-out: Activity.
Test [7] in a line: Cytotoxicity against human MOLT4 cells assessed as cell growth at 10 uM incubated for 48 hrs by sulforhodamine B assay. The conditions noted are these: MOLT-4, 48 h, read-out: Activity.
A short description of test [8]: Cytotoxicity against human HCT116 cells assessed as cell growth at 10 uM incubated for 48 hrs by sulforhodamine B assay. As to conditions: HCT-116, 48 h, read-out: Activity.
A short description of test [9]: Cytotoxicity against human NCI-ADR-RES cells assessed as cell growth at 10 uM incubated for 48 hrs by sulforhodamine B assay. The conditions noted are these: read-out: Activity.
Another test deals with MCF7. As to the kind of experiment: Cytotoxicity against human MCF7 cells assessed as cell growth at 10 uM incubated for 48 hrs by sulforhodamine B assay. The conditions noted are these: MCF7, 48 h, read-out: Activity.
Test [10] in a line: Cytotoxicity against human HCC2998 cells assessed as cell growth at 10 uM incubated for 48 hrs by sulforhodamine B assay. The conditions noted are these: HCC 2998, 48 h, read-out: Activity.
The next test concerns SK-MEL-5. Put plainly: Cytotoxicity against human SK-MEL-5 cells assessed as cell growth at 10 uM incubated for 48 hrs by sulforhodamine B assay. As to conditions: SK-MEL-5, 48 h, read-out: Activity.
The next test has as its system A549. As to the kind of experiment: Cytotoxicity against human A549 cells assessed as cell growth at 10 uM incubated for 48 hrs by sulforhodamine B assay. As to conditions: A549, 48 h, read-out: Activity.
Test [11] can be described thus: Cytotoxicity against human HCT15 cells assessed as cell growth at 10 uM incubated for 48 hrs by sulforhodamine B assay. The conditions noted are these: HCT-15, 48 h, read-out: Activity.
A further test concerns NCI-H23. As to the kind of experiment: Cytotoxicity against human NCI-H23 cells assessed as cell growth at 10 uM incubated for 48 hrs by sulforhodamine B assay. The conditions noted are these: NCI-H23, 48 h, read-out: Activity.
For another test, the system named is MDA-MB-435. Put plainly: Cytotoxicity against human MDA-MB-435 cells assessed as cell growth at 10 uM incubated for 48 hrs by sulforhodamine B assay. As to conditions: MDA-MB-435, 48 h, read-out: Activity.
For the next test, the system named is ACHN. As to the kind of experiment: Cytotoxicity against human ACHN cells assessed as cell growth at 10 uM incubated for 48 hrs by sulforhodamine B assay. The conditions noted are these: read-out: Activity.
Test [12] is described as follows: Cytotoxicity against human UACC62 cells assessed as cell growth at 10 uM incubated for 48 hrs by sulforhodamine B assay. As to conditions: UACC-62, 48 h, read-out: Activity.
For a further test, the system named is KM12. As to the kind of experiment: Cytotoxicity against human KM12 cells assessed as cell growth at 10 uM incubated for 48 hrs by sulforhodamine B assay. The conditions noted are these: KM12, 48 h, read-out: Activity.
Test [13] in a line: Cytotoxicity against human OVCAR3 cells assessed as cell growth at 10 uM incubated for 48 hrs by sulforhodamine B assay. The conditions noted are these: OVCAR-3, 48 h, read-out: Activity.
The nature of test [14]: Cytotoxicity against human SF295 cells assessed as cell growth at 10 uM incubated for 48 hrs by sulforhodamine B assay. The conditions noted are these: SF-295, 48 h, read-out: Activity.
The test system of the next test is NCI-H460. Put plainly: Cytotoxicity against human NCI-H460 cells assessed as cell growth at 10 uM incubated for 48 hrs by sulforhodamine B assay. The conditions noted are these: NCI-H460, 48 h, read-out: Activity.
Test [15] is described as follows: Cytotoxicity against human PC3 cells assessed as cell growth at 10 uM incubated for 48 hrs by sulforhodamine B assay. As to conditions: PC-3, 48 h, read-out: Activity.
The test system of a further test is EKVX. Put plainly: Cytotoxicity against human EKVX cells assessed as cell growth at 10 uM incubated for 48 hrs by sulforhodamine B assay. As to conditions: read-out: Activity.
The test system of a further test is K562. As to the kind of experiment: Cytotoxicity against human K562 cells assessed as cell growth at 10 uM incubated for 48 hrs by sulforhodamine B assay. As to conditions: K562, 48 h, read-out: Activity.
Test [16] in a line: Cytotoxicity against human OVCAR4 cells assessed as cell growth at 10 uM incubated for 48 hrs by sulforhodamine B assay. As to conditions: OVCAR-4, 48 h, read-out: Activity.
A further test has as its system 786-0. As to the kind of experiment: Cytotoxicity against human 786-0 cells assessed as cell growth at 10 uM incubated for 48 hrs by sulforhodamine B assay. As to conditions: 786-0, 48 h, read-out: Activity.
Test [17] is described as follows: Cytotoxicity against human LOXIMVI cells assessed as cell growth at 10 uM incubated for 48 hrs by sulforhodamine B assay. As to conditions: LOX IMVI, read-out: Activity.
The test system of the next test is T47D. Put plainly: Cytotoxicity against human T47D cells assessed as cell growth at 10 uM incubated for 48 hrs by sulforhodamine B assay. As to conditions: read-out: Activity.

Take `Cc1cc(=O)oc2c(C)c(O)c(-c3cc[nH]n3)cc12`: the growth at 10 µM is -10.9% in test [1], 64.3% in test [2] and -68.5% in the test on CCRF-CEM.

For `Cc1c(O)c(-c2ccnc(N)n2)cc2c3c(c(=O)oc12)CCC3`, the growth at 10 µM in test [1] is -34.4%; in [2], 55.6%; with SR, 4.79%; in [3], -5.18%; in the test with CCRF-CEM, -73.3%.

As to `CCCc1cc(=O)oc2c(C)c(O)c(-c3ccc(C#N)c(=O)[nH]3)cc12`, the growth at 10 µM in test [4] is 90%.

Consider `Cc1c(O)c(-c2ccnc(S)n2)cc2c3c(c(=O)oc12)CCCC3`, for which the figures for the growth at 10 µM (in test [5]; in the test with NCI-H522; in test [6]) were 64.5%, 68.8% and 60.8%, respectively.

In the case of `Cc1c(O)c(-c2cc3ccccc3[nH]2)cc2c3c(c(=O)oc12)CCCC3`, the growth at 10 µM was 41.6% with MDA-MB-468; 62.2% in test [7]; 51.7% in [8]; 68.8% in [4]; 49.2% in [9]; 67.3% in the test on MCF7. Further, the growth at 10 µM in test [10] was 53.7%; in the test with SK-MEL-5 it was 52.2%; in the test with A549, 58.5%; in [2], 38.7%; in test [11], 67.3%; in the test with NCI-H23, 31.5%. For the same compound, the growth at 10 µM in the test with MDA-MB-435 was found to be 65.3%; in the test on ACHN, 66.9%; in test [12], 48.2%; with KM12, 64.8%; in test [13], 64.6%; in test [14] it was 65.7%. The growth at 10 µM in the test on NCI-H460 came out at 47.8%; in [15], 52.8%; with EKVX it was 60.7%; in the test on NCI-H522, 39.6%; with K562, 44.3%; in test [6] it was 44%. For the same compound, the growth at 10 µM came out at 60.2% in the test on SR; 36.7% in [3]; 61.6% in test [16]; 69.9% in the test on 786-0; 68.2% in [17].

In the case of `CCCCc1cc(=O)oc2c(C)c(O)c(-c3ccnc4nnnn34)cc12`, the growth at 10 µM in test [6] was 89.4%.

As for `Cc1c(O)c(-c2cc3ccccc3[nH]2)cc2c3c(c(=O)oc12)CCC3`, the growth at 10 µM in [2] worked out at 51.8%; in test [12], 59.1%; in the test with T47D, 69.8%; in [15] it was 67%; in the test with NCI-H522 it was 61.6%.

`CCCc1cc(=O)oc2c(C)c(O)c(-c3ccc4c(=O)n(-c5ccccc5)nc-4[nH]3)cc12`: the growth at 10 µM in the test with SK-MEL-5 stood at 67.1%; in test [2] it was 65.8%; in test [12], 60.6%; in test [14] it was 69.1%.

`Cc1cc(=O)oc2c(C)c(O)c(-c3cc4ccccc4[nH]3)cc12`: the growth at 10 µM is 64.3% in the test with MDA-MB-468; 48.5% in the test on SK-MEL-5; 43.8% in [2]; 48.8% in test [12]; 66.5% in [15]; 58.2% in the test with NCI-H522. Further, the growth at 10 µM was 59.3% in the test on K562, 51.8% in [6] and 65.2% in the test on SR.

Take `Cc1c(O)c(-c2cc[nH]n2)cc2c3c(c(=O)oc12)CCC3`: the growth at 10 µM in test [1] is -20.4%; in test [7], -36%; with SR it was 16.5%; in test [3], 65.7%; in the test on CCRF-CEM, -69.3%.

In the case of `Cc1cc(=O)oc2c(C)c(O)c(-c3ccnc4nc5ccccc5n34)cc12`, the growth at 10 µM in the test on CCRF-CEM was -81.9%.

Take `CCCCc1cc(=O)oc2c(C)c(O)c(-c3ccnc(NC#N)n3)cc12`: in the test on CCRF-CEM, the growth at 10 µM was -58.3%.
